We go through 41 compounds from US8063053B2, “1-(arylsulfonyl)-4-(piperazin-1-yl)-1H-benzimidazoles as 5-hydroxytryptamine-6 ligands” (Wyeth LLC, priority 2008, dated 2011).

T1 sequence (P50406 whole entry): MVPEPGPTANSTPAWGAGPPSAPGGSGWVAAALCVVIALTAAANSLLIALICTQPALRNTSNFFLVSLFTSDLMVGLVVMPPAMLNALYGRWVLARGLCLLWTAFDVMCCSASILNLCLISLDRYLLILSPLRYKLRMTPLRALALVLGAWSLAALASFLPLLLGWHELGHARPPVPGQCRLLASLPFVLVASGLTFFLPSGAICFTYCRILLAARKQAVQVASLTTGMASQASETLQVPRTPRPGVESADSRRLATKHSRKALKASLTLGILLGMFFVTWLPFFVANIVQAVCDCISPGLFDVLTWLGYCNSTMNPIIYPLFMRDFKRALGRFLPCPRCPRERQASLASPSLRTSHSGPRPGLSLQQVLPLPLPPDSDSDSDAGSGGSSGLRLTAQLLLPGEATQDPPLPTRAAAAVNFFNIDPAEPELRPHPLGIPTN

This test has as its target T1, serotonin 5-HT6 receptor subtype (Homo sapiens, UniProt P50406).
T1 construct: host or cells: CHO-Dukx-A2 cells, clone 50-7
Nature of the test: 5-HT6 binding affinity ([3H]-LSD SPA binding). Conditions: read-out: 5-HT6 binding Ki.
By Ki is commonly meant the equilibrium dissociation constant of an inhibitor or competing ligand from its target. Take `Cc1nc2c(N3CCNCC3)cccc2n1S(=O)(=O)c1ccc(F)cc1` [Example 38, 1-[(4-fluorophenyl)sulfonyl]-2-methyl-4-piperazin-1-yl-1H-benzimidazole]: the inhibitory constant (Ki) was determined as 10.5 nM.

As to `Cc1nc2c(N3CCNCC3)cccc2n1S(=O)(=O)c1cccc2ccccc12` [Example 4, 2-methyl-1-(1-naphthylsulfonyl)-4-piperazin-1-yl-1H-benzimidazole], the Ki was 0.025 nM. For `O=S(=O)(c1cccc(F)c1F)n1cnc2c(N3CCNCC3)cccc21` [Example 83, 1-[(2,3-difluorophenyl)sulfonyl]-4-piperazin-1-yl-1H-benzimidazole], the Ki stood at 0.397 nM. Under `COc1cccc(S(=O)(=O)n2cnc3c(N4CCNCC4)cccc32)c1` [Example 34, 1-[(3-methoxyphenyl)sulfonyl]-4-piperazin-1-yl-1H-benzimidazole] stands 1.2 nM. Under `C[C@@H]1CN(c2cccc3c2ncn3S(=O)(=O)c2cccc(Cl)c2)CCN1` [Example 76, 1-[(3-chlorophenyl)sulfonyl]-4-[(3R)-3-methylpiperazin-1-yl]-1H-benzimidazole] stands 2.35 nM. Regarding `O=S(=O)(c1cccc(F)c1)n1cnc2c(N3C[C@@H]4C[C@H]3CN4)cccc21` [Example 107, 4-[(1S,4S)-2,5-diazabicyclo[2.2.1]hept-2-yl]-1-[(3-fluorophenyl)sulfonyl]-1H-benzimidazole], the Ki worked out at 22.1 nM. As for `CC1CN(c2cccc3c2ncn3S(=O)(=O)c2cccc3ccccc23)CCN1` (centres unmarked) [Example 129, 4-(3-methylpiperazin-1-yl)-1-(1-naphthylsulfonyl)-1H-benzimidazole], the inhibitory constant (Ki) stood at 0.051 nM.

Turning to `O=S(=O)(c1cccc2ccccc12)n1cnc2c(N3CCNCC3)cccc21` [Example 2, 1-(naphthalen-1-ylsulfonyl)-4-(piperazin-1-yl)-1H-benzo[d]imidazole], the inhibitory constant (Ki) was determined as 0.165 nM. For `Cc1nc2c(N3CCNCC3)cccc2n1S(=O)(=O)c1ccc(Cl)cc1` [Example 17, 1-[(4-chlorophenyl)sulfonyl]-2-methyl-4-piperazin-1-yl-1H-benzimidazole] the value was 6 nM; for `O=S(=O)(c1cccc(C(F)(F)F)c1)n1cnc2c(N3CCNCC3)cccc21` [Example 42, 4-piperazin-1-yl-1-{[3-(trifluoromethyl)phenyl]sulfonyl}-1H-benzimidazole], 1.13 nM. Under `O=S(=O)(c1cc(F)ccc1F)n1cnc2c(N3CCNCC3)cccc21` [Example 84, 1-[(2,5-difluorophenyl)sulfonyl]-4-piperazin-1-yl-1H-benzimidazole] stands 0.855 nM; under `Cc1cccc(Cl)c1S(=O)(=O)n1cnc2c(N3CCNCC3)cccc21` [Example 70, 1-[(2-chloro-6-methylphenyl)sulfonyl]-4-piperazin-1-yl-1H-benzimidazole], 2.33 nM; under `O=S(=O)(c1ccccc1F)n1cnc2c(N3CCNCC3)cccc21` [Example 21, 1-[(2-fluorophenyl)sulfonyl]-4-piperazin-1-yl-1H-benzimidazole], 3 nM.

As for `C[C@H]1CN(c2cccc3c2ncn3S(=O)(=O)c2cccc(Cl)c2)CCN1` [Example 80, 1-[(3-chlorophenyl)sulfonyl]-4-[(3S)-3-methylpiperazin-1-yl]-1H-benzimidazole], the Ki is 0.483 nM. For `CCOc1ccccc1S(=O)(=O)n1c(C)nc2c(N3CCNCC3)cccc21` [Example 89, 1-[(2-ethoxyphenyl)sulfonyl]-2-methyl-4-piperazin-1-yl-1H-benzimidazole], the inhibition constant (Ki) was found to be 0.761 nM.

As to `COc1ccc(Br)cc1S(=O)(=O)n1cnc2c(N3CCNCC3)cccc21` [Example 66, 1-[(5-bromo-2-methoxyphenyl)sulfonyl]-4-piperazin-1-yl-1H-benzimidazole], the inhibition constant Ki turned out to be 4.93 nM. On to `COc1ccccc1S(=O)(=O)n1cnc2c(N3CCNCC3)cccc21` [Example 44, 1-[(2-methoxyphenyl)sulfonyl]-4-piperazin-1-yl-1H-benzimidazole], for which the Ki is 0.156 nM. For `C[C@@H]1CN(c2cccc3c2ncn3S(=O)(=O)c2ccccc2Cl)CCN1` [Example 75, 1-[(2-chlorophenyl)sulfonyl]-4-[(3R)-3-methylpiperazin-1-yl]-1H-benzimidazole], the inhibition constant (Ki) amounted to 1.19 nM. For `CC(C)c1nc2c(N3CCNCC3)cccc2n1S(=O)(=O)c1ccccc1Cl` [Example 59, 1-[(2-chlorophenyl)sulfonyl]-4-(1-methylethyl)-4-piperazin-1-yl-1H-benzimidazole] the value was 0.463 nM; for `Cc1nc2c(N3C[C@@H]4C[C@H]3CN4)cccc2n1S(=O)(=O)c1cccc(F)c1` [Example 112, 4-[(1S,4S)-2,5-diazabicyclo[2.2.1]hept-2-yl]-1-[(3-fluorophenyl)sulfonyl]-2-methyl-1H-benzimidazole], 39.9 nM. Under `Cc1nc2c(N3CCNCC3)cccc2n1S(=O)(=O)c1cccc(OC(F)(F)F)c1` [Example 14, 2-methyl-4-piperazin-1-yl-1-{[3-(trifluoromethoxy)phenyl]sulfonyl}-1H-benzimidazole] stands 2.3 nM. For `CCC1CN(c2cccc3c2ncn3S(=O)(=O)c2cccc3ccccc23)CCN1` (centres unmarked) [Example 118, 4-(3-ethylpiperazin-1-yl)-1-(1-naphthylsulfonyl)-1H-benzimidazole], the Ki stood at 1.38 nM.

Regarding `O=S(=O)(c1cccc(Cl)c1)n1cnc2c(N3CCNCC3)cccc21` [Example 19, 1-[(3-chlorophenyl)sulfonyl]-4-piperazin-1-yl-1H-benzimidazole], the inhibition constant (Ki) was 4.3 nM. For `Cc1nc2c(N3C[C@@H]4C[C@H]3CN4)cccc2n1S(=O)(=O)c1ccccc1Cl` [Example 111, 1-[(2-chlorophenyl)sulfonyl]-4-[(1S,4S)-2,5-diazabicyclo[2.2.1]hept-2-yl]-2-methyl-1H-benzimidazole] the value was 21 nM. Regarding `COc1cccc(S(=O)(=O)n2c(C)nc3c(N4CCNCC4)cccc32)c1` [Example 45, 1-[(3-methoxyphenyl)sulfonyl]-2-methyl-4-piperazin-1-yl-1H-benzimidazole], the inhibitory constant (Ki) stood at 2.07 nM. For `O=S(=O)(c1ccc(Cl)cc1)n1cnc2c(N3CCNCC3)cccc21` [Example 10, 1-[(4-chlorophenyl)sulfonyl]-4-piperazin-1-yl-1H-benzimidazole] the value was 1.32 nM; for `Cc1ccccc1S(=O)(=O)n1cnc2c(N3CCNCC3)cccc21` [Example 39, 1-[(2-methylphenyl)sulfonyl]-4-piperazin-1-yl-1H-benzimidazole], 1.15 nM.

With `Cc1c(Cl)cccc1S(=O)(=O)n1c(C)nc2c(N3C[C@@H](C)N[C@@H](C)C3)cccc21` [Example 100, 1-[(3-chloro-2-methylphenyl)sulfonyl]-4-[(3R,5S)-3,5-dimethylpiperazin-1-yl]-2-methyl-1H-benzimidazole], the Ki was determined as 2.28 nM. Under `O=S(=O)(c1ccccc1)n1cnc2c(N3C[C@@H]4C[C@H]3CN4)cccc21` [Example 104, 4-[(1S,4S)-2,5-diazabicyclo[2.2.1]hept-2-yl]-1-(phenylsulfonyl)-1H-benzimidazole] stands 44.7 nM. Under `O=S(=O)(c1cccc2ccccc12)n1cnc2c(N3C[C@@H]4C[C@H]3CN4)cccc21` [Example 105, 4-[(1S,4S)-2,5-diazabicyclo[2.2.1]hept-2-yl]-1-(naphthalen-1-ylsulfonyl)-1H-benzimidazole] stands 7.55 nM. For `Cc1nc2c(N3CCN[C@H](C)C3)cccc2n1S(=O)(=O)c1cccc2c(Cl)cccc12` [Example 127, 1-[(5-chloro-1-naphthyl)sulfonyl]-2-methyl-4-[(3R)-3-methylpiperazin-1-yl]-1H-benzimidazole] the value was 8.38 nM; for `Cc1nc2c(N3CCNCC3)cccc2n1S(=O)(=O)c1ccccc1C(F)(F)F` [Example 48, 2-methyl-4-piperazin-1-yl-1-{[2-(trifluoromethyl)phenyl]sulfonyl}-1H-benzimidazole], 2.94 nM. For `Cc1ccc(F)c(S(=O)(=O)n2cnc3c(N4CCNCC4)cccc32)c1` [Example 72, 1-[(2-fluoro-5-methylphenyl)sulfonyl]-4-piperazin-1-yl-1H-benzimidazole], the Ki is 0.254 nM. Under `Cc1nc2c(N3CCNCC3)cccc2n1S(=O)(=O)c1cccc(C(F)(F)F)c1` [Example 49, 2-methyl-4-piperazin-1-yl-1-{[3-(trifluoromethyl)phenyl]sulfonyl}-1H-benzimidazole] stands 0.982 nM. Regarding `Cc1c(Cl)cccc1S(=O)(=O)n1c(C)nc2c(N3C[C@@H]4C[C@H]3CN4)cccc21` [Example 113, 1-[(3-chloro-2-methylphenyl)sulfonyl]-4-[(1S,4S)-2,5-diazabicyclo[2.2.1]hept-2-yl]-2-methyl-1H-benzimidazole], the Ki amounted to 14.1 nM. In the case of `Cc1nc2c(N3CCNCC3)cccc2n1S(=O)(=O)c1ccc2ccccc2c1` [Example 43, 2-methyl-1-(2-naphthylsulfonyl)-4-piperazin-1-yl-1H-benzimidazole], the inhibition constant (Ki) was found to be 1.05 nM. On to `O=S(=O)(c1cc(F)cc(Cl)c1)n1cnc2c(N3CCNCC3)cccc21` [Example 88, 1-[(3-chloro-5-fluorophenyl)sulfonyl]-4-piperazin-1-yl-1H-benzimidazole], for which the Ki turned out to be 0.589 nM. Take `O=S(=O)(c1cccc2c(Cl)cccc12)n1cnc2c(N3CCNCC3)cccc21` [Example 50, 1-[(5-chloro-1-naphthyl)sulfonyl]-4-piperazin-1-yl-1H-benzimidazole]: the Ki was 1.36 nM.

Consider `Cc1nc2c(N3CCNC(C)C3)cccc2n1S(=O)(=O)c1ccccc1` (stereo in doubt) [Example 116, 2-methyl-4-[(3S)-3-methylpiperazin-1-yl]-1-(phenylsulfonyl)-1H-benzimidazole], for which the Ki was 0.951 nM.

For the compound `O=S(=O)(c1ccc(F)c(Cl)c1)n1cnc2c(N3CCNCC3)cccc21` [Example 29, 1-[(3-chloro-4-fluorophenyl)sulfonyl]-4-piperazin-1-yl-1H-benzimidazole], the Ki was 11.7 nM.

In the case of `O=S(=O)(c1cccc2ccccc12)n1cnc2c(N3CCNCC3)cc(F)cc21` [Example 101, 6-fluoro-1-(naphthalen-1-ylsulfonyl)-4-piperazin-1-yl-1H-benzimidazole], the Ki amounted to 1.33 nM.
